From patent US7485633B2, “Cyclopropyl fused indolobenzazepine HCV NS5B inhibitors” (Bristol-Myers Squibb Company, priority 2005, dated 2009)

System: HCV
Test: not given
Conditions: HCV patients, combination therapy; cited from earlier work

Row | Compound | sustained efficacy
1 | alpha-interferon and ribavirin | 40 % of patients

System: HCV replicon cells
Test: HCV replicon FRET assay
Assay type: cell-based
Conditions: Hepatitis C virus
From the text: FRET Assay Preparation. To perform the HCV FRET screening assay, 96-well cell culture plates were used. The FRET peptide (Anaspec, Inc.) (Taliani et al., Anal. Biochem. 1996, 240, 60-67) contains a fluorescence donor, EDANS, near one end of the peptide and an acceptor, DABCYL, near the other end. The fluorescence of the peptide is quenched by […] resonance energy transfer (RET) between the donor and the acceptor, but as the NS3 protease cleaves the peptide the products are released from RET quenching and the fluorescence of the donor becomes apparent. The assay reagent was made as follows: 5× cell Luciferase cell culture lysis reagent from Promega (#E153A) diluted to 1× with dH2O, NaCl added to 150 mM final, the FRET peptide diluted to 20 uM final from a 2 mM stock.
To prepare plates, HCV replicon cells, with or without a Renilla luciferase reporter gene, were trypsinized and placed into each well of a 96-well plate with titrated test compounds added in columns 3 through 12; columns 1 and 2 contained a control compound (HCV protease inhibitor), and the bottom row contained cells without compound. The plates were then placed in a CO2 incubator at 37° C.
Assays. Subsequent to addition of the test compounds described above (FRET Assay Preparation), at various times the plate was removed and Alamar blue solution (Trek Diagnostics, #00-100) was added per well as a measure of cellular toxicity. After reading in a Cytoflour 4000 instrument (PE Biosystems), plates were rinsed with PBS and then used for FRET assay by the addition of 30 ul of the FRET peptide assay reagent described above (FRET Assay Preparation) per well. The plate was then placed into the Cytoflour 4000 instrument which had been set to 340 excite/490 emission, automatic mode for 20 cycles and the plate read in a kinetic mode. Typically, the signal to noise using an endpoint analysis after the reads was at least three-fold. Alternatively, after Alamar blue reading, plates were rinsed with PBS, 50 ul of DMEM (high glucose) without phenol red was added and plates were then used for luciferase assay using the Promega Dual-Glo Luciferase Assay System.
Compound analysis was determined by quantification of the relative HCV replicon inhibition and the relative cytotoxicity values. To calculate cytoxicity values, the average Alamar Blue fluorescence signals from the control wells were set as 100% non-toxic. The individual signals in each of the compound test wells were then divided by the average control signal and multiplied by 100% to determine […]. To calculate the HCV replicon inhibition values, an average background value was obtained from the two wells containing the highest amount of HCV protease inhibitor at the end of the assay period. These numbers were similar to those obtained from naïve Huh-7 cells.
The background numbers were then subtracted from the average signal obtained from the control wells and this number was used as 100% activity. The individual signals in each of the compound test wells were then divided by the averaged control values after background subtraction and multiplied by 100% to determine percent activity. EC50 values for a protease inhibitor titration were calculated as the concentration which caused a 50% reduction in FRET or luciferase activity. The two numbers generated for the compound plate, percent cytoxicity and percent activity were used to determine compounds of interest for further analysis.

Row | Compound | EC50 [nM]
2 | O=C(O)c1ccc2c(C3CCCCC3)c3n(c2c1)CC1(C(=O)N2CCOCC2)CC1c1ccccc1-3 (centres unmarked) | 20 to 1000
3 | CN(C)S(=O)(=O)NC(=O)c1ccc2c(C3CCCCC3)c3n(c2c1)CC1(C(=O)N2CCOCC2)CC1c1ccccc1-3 (centres unmarked) | 20 to 1000
4 | COC(=O)c1ccc2c(C3CCCCC3)c3n(c2c1)CC1(C(=O)OC)CC1c1cc(OC)ccc1-3 (centres unmarked) | 20 to 1000
5 | COc1ccc2c(c1)C1CC1(C(=O)N1C[C@@H](C)O[C@@H](C)C1)Cn1c-2c(C2CCCCC2)c2ccc(C(=O)NS(=O)(=O)N(C)C)cc21 (some centres unmarked) | 20 to 1000
6 | COC(=O)C12CC1c1cc(OC)ccc1-c1c(C3CCCCC3)c3ccc(C(=O)O)cc3n1C2 (centres unmarked) | 1000 to 10000
7 | COc1ccc2c(c1)C1CC1(C(=O)N1C[C@@H](C)N[C@@H](C)C1)Cn1c-2c(C2CCCCC2)c2ccc(C(=O)NS(=O)(=O)N(C)C)cc21 (some centres unmarked) | 20 to 1000
8 | COc1ccc2c(c1)C1CC1(C(=O)N1CCOCC1)Cn1c-2c(C2CCCCC2)c2ccc(C(=O)NS(=O)(=O)N(C)C)cc21 (centres unmarked) | 20 to 1000
9 | COC[C@H]1CN(C(=O)C23CC2c2cc(OC)ccc2-c2c(C4CCCCC4)c4ccc(C(=O)NS(=O)(=O)N(C)C)cc4n2C3)CCO1 (some centres unmarked) | 20 to 1000
10 | COC[C@@H]1CN(C(=O)C23CC2c2cc(OC)ccc2-c2c(C4CCCCC4)c4ccc(C(=O)NS(=O)(=O)N(C)C)cc4n2C3)CCO1 (some centres unmarked) [listing 1 of 2 here] | 20 to 1000
11 | COC[C@@H]1CN(C(=O)C23CC2c2cc(OC)ccc2-c2c(C4CCCCC4)c4ccc(C(=O)NS(=O)(=O)N(C)C)cc4n2C3)CCO1 (some centres unmarked) [listing 2 of 2 here] | 97 to 1000
12 | O=C(O)c1ccc2c(C3CCCCC3)c3n(c2c1)C[C@@]1(C(=O)N2CCOCC2)C[C@H]1c1ccccc1-3 (single isomer, unassigned) | 20 to 1000
13 | O=C(O)c1ccc2c(C3CCCCC3)c3n(c2c1)C[C@]1(C(=O)N2CCOCC2)C[C@@H]1c1ccccc1-3 (single isomer, unassigned) | 20 to 1000
14 | CN(C)S(=O)(=O)NC(=O)c1ccc2c(C3CCCCC3)c3n(c2c1)C[C@@]1(C(=O)N2CCOCC2)C[C@H]1c1ccccc1-3 (single isomer, unassigned) | 20 to 1000
15 | CN(C)S(=O)(=O)NC(=O)c1ccc2c(C3CCCCC3)c3n(c2c1)C[C@]1(C(=O)N2CCOCC2)C[C@@H]1c1ccccc1-3 (single isomer, unassigned) | 20 to 1000

Same assay, conditions: Hepatitis C virus, HCV replicon cells, FRET assay; read-out: EC50

Row | Compound | EC50 [nM]
16 | COC(=O)c1ccc2c(C3CCCCC3)c3n(c2c1)CC1(C(=O)N2CCOCC2)CC1c1ccccc1-3 (centres unmarked) | 20 to 1000
17 | COc1ccc2c(c1)C1CC1(C(=O)N1CCOCC1)Cn1c-2c(C2CCCCC2)c2ccc(C(=O)O)cc21 (centres unmarked) | 20 to 1000
18 | COc1ccc2c(c1)C1CC1(C(=O)N1C[C@@H](C)O[C@@H](C)C1)Cn1c-2c(C2CCCCC2)c2ccc(C(=O)O)cc21 (some centres unmarked) | 20 to 1000
19 | CCN(CC)C1CCN(C(=O)C23CC2c2cc(OC)ccc2-c2c(C4CCCCC4)c4ccc(C(=O)NS(=O)(=O)N(C)C)cc4n2C3)CC1 (centres unmarked) | 20 to 1000
20 | COc1ccc2c(c1)C1CC1(C(=O)N1CCOC(CN(C)C)C1)Cn1c-2c(C2CCCCC2)c2ccc(C(=O)NS(=O)(=O)C3CC3)cc21 (centres unmarked) | 20 to 1000
21 | COc1ccc2c(c1)C1CC1(C(=O)N1CCC(N3CCOCC3)CC1)Cn1c-2c(C2CCCCC2)c2ccc(C(=O)NS(=O)(=O)C3CC3)cc21 (centres unmarked) | 20 to 1000
22 | COC(=O)C12CC1c1cc(OC)ccc1-c1c(C3CCCCC3)c3ccc(C(=O)OC(C)(C)C)cc3n1C2 (centres unmarked) | > 10000
23 | COc1ccc2c(c1)C1C[C@]1(C(=O)O)Cn1c-2c(C2CCCCC2)c2ccc(C(=O)NS(=O)(=O)N(C)C)cc21 (some centres unmarked) | 1000 to 10000
24 | COc1ccc2c(c1)C1CC1(C(=O)N1CCOCC1)Cn1c-2c(C2CCCCC2)c2ccc(C(=O)NS(=O)(=O)N3CCN(C)CC3)cc21 (centres unmarked) | 20 to 1000
25 | COc1ccc2c(c1)C1CC1(C(=O)N1CCOCC1)Cn1c-2c(C2CCCCC2)c2ccc(C(=O)NS(=O)(=O)N3CCOCC3)cc21 (centres unmarked) | 20 to 1000
26 | COc1ccc2c(c1)C1CC1(C(=O)N1CCOCC1)Cn1c-2c(C2CCCCC2)c2ccc(C(=O)NS(=O)(=O)C3CC3)cc21 (centres unmarked) | 20 to 1000
27 | COc1ccc2c(c1)C1CC1(C(=O)N(C)C)Cn1c-2c(C2CCCCC2)c2ccc(C(=O)NS(=O)(=O)N(C)C)cc21 (centres unmarked) | 20 to 1000
28 | CC(C)c1ccc2c(c1)C1CC1(C(=O)N1CCOCC1)Cn1c-2c(C2CCCCC2)c2ccc(C(=O)O)cc21 (centres unmarked) | 20 to 1000
29 | COC(=O)C12CC1c1cc(O)ccc1-c1c(C3CCCCC3)c3ccc(C(=O)NS(=O)(=O)N(C)C)cc3n1C2 (centres unmarked) | 20 to 1000
30 | Cc1ccc2c(c1)C1CC1(C(=O)N1CCOCC1)Cn1c-2c(C2CCCCC2)c2ccc(C(=O)O)cc21 (centres unmarked) | 20 to 1000
31 | CCc1ccc2c(c1)C1CC1(C(=O)N1CCOCC1)Cn1c-2c(C2CCCCC2)c2ccc(C(=O)NS(=O)(=O)N(C)C)cc21 (centres unmarked) | 20 to 1000
32 | CCc1ccc2c(c1)C1CC1(C(=O)N1CCOCC1)Cn1c-2c(C2CCCCC2)c2ccc(C(=O)O)cc21 (centres unmarked) | 20 to 1000
33 | CC(C)Oc1ccc2c(c1)C1CC1(C(=O)N1CCOCC1)Cn1c-2c(C2CCCCC2)c2ccc(C(=O)NS(=O)(=O)N(C)C)cc21 (centres unmarked) | 20 to 1000

Row | Compound | EC50 [nM]
34 | C=Cc1ccc2c(c1)C1CC1(C(=O)N1CCOCC1)Cn1c-2c(C2CCCCC2)c2ccc(C(=O)O)cc21 (centres unmarked) | 20 to 1000
35 | CCOc1ccc2c(c1)C1CC1(C(=O)N1CCOCC1)Cn1c-2c(C2CCCCC2)c2ccc(C(=O)NS(=O)(=O)N(C)C)cc21 (centres unmarked) | 20 to 1000
36 | CN(C)S(=O)(=O)NC(=O)c1ccc2c(C3CCCCC3)c3n(c2c1)CC1(C(=O)N2CCOCC2)CC1c1cc(O)ccc1-3 (centres unmarked) | 20 to 1000
37 | CC(C)Oc1ccc2c(c1)C1CC1(C(=O)N1CCOCC1)Cn1c-2c(C2CCCCC2)c2ccc(C(=O)O)cc21 (centres unmarked) | 20 to 1000
38 | CCOc1ccc2c(c1)C1CC1(C(=O)N1CCOCC1)Cn1c-2c(C2CCCCC2)c2ccc(C(=O)O)cc21 (centres unmarked) | 20 to 1000
39 | COC(=O)c1ccc2c(C3CCCCC3)c3n(c2c1)CC1(C(=O)N2CCOCC2)CC1c1cc(OC(C)C)ccc1-3 (centres unmarked) | 20 to 1000
40 | COc1ccc2c(c1)C1CC1(C(=O)N1CCC(N3CCOCC3)CC1)Cn1c-2c(C2CCCCC2)c2ccc(C(=O)O)cc21 (centres unmarked) | 20 to 1000
41 | CCN(CC)C(=O)CN(C)C(=O)C12CC1c1cc(OC)ccc1-c1c(C3CCCCC3)c3ccc(C(=O)NS(=O)(=O)N(C)C)cc3n1C2 (centres unmarked) | 20 to 1000
42 | C[C@@H]1CN(C(=O)C23CC2c2cc(OCc4ccccc4)ccc2-c2c(C4CCCCC4)c4ccc(C(=O)NS(=O)(=O)N(C)C)cc4n2C3)C[C@H](C)O1 (some centres unmarked) | 20 to 1000
43 | C[C@@H]1CN(C(=O)C23CC2c2cc(O)ccc2-c2c(C4CCCCC4)c4ccc(C(=O)NS(=O)(=O)N(C)C)cc4n2C3)C[C@H](C)O1 (some centres unmarked) | 20 to 1000
44 | COc1ccc2c(c1)C1C[C@]1(C(=O)N[C@@H]1C3CCC(C)([C@@H]1O)C3(C)C)Cn1c-2c(C2CCCCC2)c2ccc(C(=O)NS(=O)(=O)N(C)C)cc21 (some centres unmarked) | 20 to 1000
45 | COc1ccc2c(c1OCc1ccccc1)C1CC1(C(=O)O)Cn1c-2c(C2CCCCC2)c2ccc(C(=O)NS(=O)(=O)N(C)C)cc21 (centres unmarked) | > 1000
46 | CCN(C)CCN(C)C(=O)C12CC1c1cc(OC)ccc1-c1c(C3CCCCC3)c3ccc(C(=O)NS(=O)(=O)N(C)C)cc3n1C2 (centres unmarked) | 97 to 1000
47 | COc1ccc2c(c1)[C@@H]1C[C@]1(C(=O)N1CCCC[C@H]1CN(C)C)Cn1c-2c(C2CCCCC2)c2ccc(C(=O)NS(=O)(=O)N(C)C)cc21 | 97 to 1000
48 | COc1ccc2c(c1)[C@@H]1C[C@]1(C(=O)N1CCCC[C@@H]1CN(C)C)Cn1c-2c(C2CCCCC2)c2ccc(C(=O)NS(=O)(=O)N(C)C)cc21 | 97 to 1000
49 | COc1ccc2c(c1)C1CC1(C(=O)N1C[C@@H](C)O[C@@H](C)C1)Cn1c-2c(C2CCCCC2)c2ccc(C(=O)NS(C)(=O)=O)cc21 (some centres unmarked) | 97 to 1000
50 | COc1ccc2c(c1)C1C[C@@]1(C(=O)O)Cn1c-2c(C2CCCCC2)c2ccc(C(=O)NS(=O)(=O)N(C)C)cc21 (single isomer, unassigned) | 1000 to 10000
